# According to paper PMC8957246, “Synthesis and diverse biological activity profile of triethylammonium isatin-3-hydrazones” (ADMET & DMPK, 2022):
# Where two headings read alike, the source gives them in different places. Marks after values point to notes of the source that are not given here.
# Tests used:
# [1] = test system: activated partial thromboplastin time (intrinsic coagulation pathway); assay: Anticoagulant activity, clotting test APTT; design: species or system human; conditions: for APTT, % of control: concentration 5×10^–4 g/mL, median (25-75 percentiles); for anticoagulant activity: APTT, p<0.05
# Micrococcus luteus B-109 = assay: Bactericidal activity, agar diffusion, M. luteus; type: cell-based; conditions: Micrococcus luteus, B109, 2 mM/L
# Text: (§1) Plant pathogenic bacterial strains Micrococcus luteus B-109, Pectobacterium atrosepticum 1043, Pectobacterium carotovorum subsp. carotovorum MI, Pseudomonas fluorescens EL-2.1, and Xanthomonas campestris B-610 and fungal strain Fusarium oxysporum IBPPM 543 were obtained from the specialized scientific culture collection of IBPPM RAS (WFCC no. 975, WDCM no. 1021) (CM IBPPM). Pathogenic fungus Phytophthora cactorum VKM F-985 provided by the All-Russian Collection of Microorganisms (VKM) and deposited at A.E. Favorsky Irkutsk Institute of Chemistry, SB RAS, was also used as test organism. Bacteria M. luteus, P. carotovorum subsp. carotovorum, P. atrosepticum, and Ps. fluorescens were grown in meat-peptone medium (BP), and X. campestris was grown in the medium with glucose, yeast extract, and calcium carbonate (GYCa). Solid media contained Bacto agar (18 g/L); pH was adjusted to 7.2-7.4. All bacterial cultures were grown at 28°C. The mycelial cultures of F. oxysporum and P. cactorum were grown on a glucose-peptone-yeast (GPY) nutrient medium at 27 °C. For inoculum preparation, both fungal strains were initially grown on the agar GPY in Petri dishes and then transferred into the seed medium by punching out 5 mm of the agar plate culture with a self-designed cutter.
# (§2) Antibacterial and antifungal activities of the compounds were explored using the agar diffusion method and the technique of a phytopathogen radial growth inhibition. Method of diffusion in agar (measuring the diameter of growth inhibition zones) was used for determining the bactericidal activity. The 6-mm wells were made in ager medium (GYCa for Xanthomonas campestris or BP for other bacteria). Bacterial suspensions were distributed over the agar surface, and the tested compound's solution (150 μl) was added to each well. The width of growth inhibition zones around the wells was determined after incubation for 36-40 h.
# (§3) The solutions of tested compounds were prepared with a concentration of 2 mmol/l (stock solution). For comparison, test compounds were also commonly applied disinfecting agents and antibiotics.
# [2] = test system: Pectobacterium atrosepticum 1043; assay: Bactericidal activity, agar diffusion, P. atrosepticum; type: cell-based; conditions: Pectobacterium atrosepticum, 1043, 2 mM/L
# Text: as §1, §2, §3
# [3] = test system: Pseudomonas fluorescens EL-2.1; assay: Bactericidal activity, agar diffusion, Ps. fluorescens; type: cell-based; conditions: Pseudomonas fluorescens, EL2.1, 2 mM/L
# Text: as §1, §2, §3
# [4] = test system: Fusarium oxysporum IBPPM 543; assay: Fungicidal activity, radial growth inhibition, F. oxysporum; type: cell-based; conditions: for EC50: Fusarium oxysporum, IBPPM543, 168 h, day 7, EC50 = 50C/I, read-out: EC50, μg/mL at day 7
# Text: as §1
# For the fungicidal activity analysis, radial growth (colony diameters) of the fungi on a solid medium in the absence and in the presence of the compounds 3a,c-g solutions at various concentrations were compared. The method consisted of the following: sterile, melted and then cooled to about 60°C GPY agar medium (20.0 ml) was mixed with the precisely measured volumes of the solutions under question, and poured into a sterile Petri dish (90 mm i.d.). After solidification of GPY agar, the media were inoculated by the fungus using 10-day-old cultures of F. oxysporum or P. cactorum. The inoculation was done by transferring a 5-mm (i.d.) GPY-agar block covered with mycelium to the center of the Petri dish followed by incubation in a thermostat at 27°C. The fungicidal effect was scored by the size of mycelium colony on a Petri dish compared to the control without fungicidal admixtures to GPY agar. Each treatment was performed in at least four replicates in two independent experiments. The observation period ended when the control Petri dish was filled with mycelium (usually after 12 days). The inhibition of the phytopathogen colony growth by the compounds 3a,c-g or fludioxonil solutions was calculated as a percentage by which the mycelium radial propagation was decreased compared to the unaffected control, the latter was taken as 100 % of growth (or zero percent of inhibition). The EC50 value was calculated as the compound concentration at which the radial growth of the fungus colony was decreased by 50 % relative to the non-fungicidal control, according to the formula EC50 = 50C/I based on the approach developed e.g., in [34, 35].
# as §3
# [5] = 150 μl per well, 36-40 h, read-out: width of the inhibition zone
# [6] = read-out: Inhibition zone width (mm), not less
smiles,measurement,setting,value
"CC[N+](CC)(CC)CC(=O)N/N=C1\C(=O)N(Cc2cc(C(C)(C)C)c(O)c(C(C)(C)C)c2)c2c(Br)cc(Cl)cc21 [Compound 3g, 2-(2-(1-(3,5-Di-tert-butyl-4-hydroxybenzyl)-5-chloro-7-bromo-2-oxoindolin-3-ylidene)hydrazinyl)-N,N,N-triethyl-2-oxoethanammonium bromide]","APTT, % of control",[1],"+8.6 (6.1-10.9) ^*, ^† % of control"
same,zone of inhibition at 2000 µM,Micrococcus luteus B-109; [5],7 mm
same,zone of inhibition at 2000 µM,[2]; [5],9 mm
same,zone of inhibition at 2000 µM,[2]; [6],≥ 9 mm
same,zone of inhibition at 2000 µM,[3]; [5],8.5 mm
same,zone of inhibition at 2000 µM,[3]; [6],≥ 8 mm
same,"Inhibition value, I (%)","[4]; C 7.15 μg/mL, age of the fungus 3 days",0%
same,"Inhibition value, I (%)","[4]; C 7.15 μg/mL, age of the fungus 5 days",4%
same,"Inhibition value, I (%)","[4]; C 7.15 μg/mL, age of the fungus 7 days",5%
same,"Inhibition value, I (%)","[4]; C 7.15 μg/mL, age of the fungus 9 days",4%
same,"Inhibition value, I (%)","[4]; C 14.30 μg/mL, age of the fungus 3 days",9%
same,"Inhibition value, I (%)","[4]; C 14.30 μg/mL, age of the fungus 5 days",4%
same,"Inhibition value, I (%)","[4]; C 14.30 μg/mL, age of the fungus 7 days",11%
same,"Inhibition value, I (%)","[4]; C 14.30 μg/mL, age of the fungus 9 days",5%
same,"Inhibition value, I (%)","[4]; C 28.60 μg/mL, age of the fungus 3 days",11%
same,"Inhibition value, I (%)","[4]; C 28.60 μg/mL, age of the fungus 5 days",7%
same,"Inhibition value, I (%)","[4]; C 28.60 μg/mL, age of the fungus 7 days",26%
same,"Inhibition value, I (%)","[4]; C 28.60 μg/mL, age of the fungus 9 days",10%
same,"Inhibition value, I (%)","[4]; C 42.90 μg/mL, age of the fungus 3 days",31%
same,"Inhibition value, I (%)","[4]; C 42.90 μg/mL, age of the fungus 5 days",27%
same,"Inhibition value, I (%)","[4]; C 42.90 μg/mL, age of the fungus 7 days",32%
same,"Inhibition value, I (%)","[4]; C 42.90 μg/mL, age of the fungus 9 days",13%
same,EC50,[4],55 µg/mL
"CC[N+](CC)(CC)CC(=O)N/N=C1\C(=O)N(Cc2cc(C(C)(C)C)c(O)c(C(C)(C)C)c2)c2ccc([N+](=O)[O-])cc21 [Compound 3f, 2-(2-(1-(3,5-Di-tert-butyl-4-hydroxybenzyl)-5-nitro-2-oxoindolin-3-ylidene)hydrazinyl)-N,N,N-triethyl-2-oxoethanammonium bromide]",anticoagulant activity,[1],≥ 10%
same,"APTT, % of control",[1],"+10.3 (8.5-12.7) ^*, ^† % of control"
same,zone of inhibition at 2000 µM,Micrococcus luteus B-109; [5],10 mm
same,zone of inhibition at 2000 µM,Micrococcus luteus B-109; [6],≥ 10 mm
same,zone of inhibition at 2000 µM,[2]; [5],10 mm
same,zone of inhibition at 2000 µM,[2]; [6],≥ 10 mm
same,zone of inhibition at 2000 µM,[3]; [5],10 mm
same,zone of inhibition at 2000 µM,[3]; [6],≥ 10 mm
same,"Inhibition value, I (%)","[4]; C 6.47 μg/mL, age of the fungus 3 days",13%
same,"Inhibition value, I (%)","[4]; C 6.47 μg/mL, age of the fungus 5 days",11%
same,"Inhibition value, I (%)","[4]; C 6.47 μg/mL, age of the fungus 7 days",10%
same,"Inhibition value, I (%)","[4]; C 6.47 μg/mL, age of the fungus 9 days",9%
same,"Inhibition value, I (%)","[4]; C 12.94 μg/mL, age of the fungus 3 days",26%
same,"Inhibition value, I (%)","[4]; C 12.94 μg/mL, age of the fungus 5 days",23%
same,"Inhibition value, I (%)","[4]; C 12.94 μg/mL, age of the fungus 7 days",21%
same,"Inhibition value, I (%)","[4]; C 12.94 μg/mL, age of the fungus 9 days",10%
same,"Inhibition value, I (%)","[4]; C 25.88 μg/mL, age of the fungus 3 days",28%
same,"Inhibition value, I (%)","[4]; C 25.88 μg/mL, age of the fungus 5 days",27%
same,"Inhibition value, I (%)","[4]; C 25.88 μg/mL, age of the fungus 7 days",32%
same,"Inhibition value, I (%)","[4]; C 25.88 μg/mL, age of the fungus 9 days",12%
same,"Inhibition value, I (%)","[4]; C 38.82 μg/mL, age of the fungus 3 days",29%
same,"Inhibition value, I (%)","[4]; C 38.82 μg/mL, age of the fungus 5 days",28%
same,"Inhibition value, I (%)","[4]; C 38.82 μg/mL, age of the fungus 7 days",34%
same,"Inhibition value, I (%)","[4]; C 38.82 μg/mL, age of the fungus 9 days",18%
same,EC50,[4],30.8 µg/mL
"CCc1cccc2c1N(Cc1cc(C(C)(C)C)c(O)c(C(C)(C)C)c1)C(=O)/C2=N\NC(=O)C[N+](CC)(CC)CC [Compound 3c, 2-(2-(1-(3,5-Di-tert-butyl-4-hydroxybenzyl)-7-ethyl-2-oxoindolin-3-ylidene)hydrazinyl)-N,N,N-triethyl-2-oxoethanammonium bromide]",anticoagulant activity,[1],≥ 10%
same,"APTT, % of control",[1],"+11.2 (7.9-13.1) ^*, ^† % of control"
same,zone of inhibition at 2000 µM,Micrococcus luteus B-109; [5],10.5 mm
same,zone of inhibition at 2000 µM,Micrococcus luteus B-109; [6],≥ 10 mm
same,zone of inhibition at 2000 µM,[2]; [5],9 mm
same,zone of inhibition at 2000 µM,[2]; [6],≥ 9 mm
same,zone of inhibition at 2000 µM,[3]; [5],8 mm
same,zone of inhibition at 2000 µM,[3]; [6],≥ 8 mm
same,"Inhibition value, I (%)","[4]; C 6.30 μg/mL, age of the fungus 3 days",2%
same,"Inhibition value, I (%)","[4]; C 6.30 μg/mL, age of the fungus 5 days",11%
same,"Inhibition value, I (%)","[4]; C 6.30 μg/mL, age of the fungus 7 days",30%
same,"Inhibition value, I (%)","[4]; C 6.30 μg/mL, age of the fungus 9 days",17%
same,"Inhibition value, I (%)","[4]; C 12.60 μg/mL, age of the fungus 3 days",24%
same,"Inhibition value, I (%)","[4]; C 12.60 μg/mL, age of the fungus 5 days",26%
same,"Inhibition value, I (%)","[4]; C 12.60 μg/mL, age of the fungus 7 days",33%
same,"Inhibition value, I (%)","[4]; C 12.60 μg/mL, age of the fungus 9 days",23%
same,"Inhibition value, I (%)","[4]; C 25.20 μg/mL, age of the fungus 3 days",31%
same,"Inhibition value, I (%)","[4]; C 25.20 μg/mL, age of the fungus 5 days",33%
same,"Inhibition value, I (%)","[4]; C 25.20 μg/mL, age of the fungus 7 days",47%
same,"Inhibition value, I (%)","[4]; C 25.20 μg/mL, age of the fungus 9 days",27%
same,"Inhibition value, I (%)","[4]; C 37.80 μg/mL, age of the fungus 3 days",44%
same,"Inhibition value, I (%)","[4]; C 37.80 μg/mL, age of the fungus 5 days",42%
same,"Inhibition value, I (%)","[4]; C 37.80 μg/mL, age of the fungus 7 days",59%
same,"Inhibition value, I (%)","[4]; C 37.80 μg/mL, age of the fungus 9 days",38%
same,EC50,[4],10.5 µg/mL
